Columns and labels:
[1] = system: B16 murine melanoma cell line; assay: In vitro antiproliferative activity, MTT assay; assay type: cell-based, mouse; details: for IC50: MTT assay, 0.8–100 μM in serum-free medium 24 h, then 48 h culture, mean ± SD of two or three independent experiments; for Relative Potency: ratio of IC50 values of free Dau and conjugate
Text: (§1) The following cell cultures were used for the biological evaluation of the synthetic melanoma-specific peptide–drug (Dau–α-MSH) conjugates: A2058 (human skin melanoma, CVCL_1059), M24 (human metastatic skin melanoma, CVCL_D032), OCM-1 (human ocular choroidal melanoma-1, CVCL_6934), OCM-3 (human ocular choroidal melanoma-3, CVCL_6937), WM983A (human metastatic skin melanoma, CVCL_6808), WM983B (human metastatic skin melanoma CVCL_6809), SK-MEL-202 (human skin melanoma, ATCC HTB-68) and B16 (mouse melanoma, ATCC: CRL-6475). Cells were maintained in RPMI-1640 (Lonza, Basel, Switzerland), supplied with 10% FBS (fetal bovine serum; BioSera, Nuaille, France), L-glutamine, and 1% penicillin–streptomycin (from 10 000 units penicillin and 10 mg streptomycin/mL, Gibco, Dublin, Ireland) at 37 °C in a 5% CO2 atmosphere. No mycoplasma contamination was detected in the cell cultures.
(§2) The in vitro cytostatic effect of Dau–α-MSH conjugates was determined by two different assays. The full-length Dau–α-MSH conjugates were investigated by MTT assay using human and murine melanoma cell cultures. For determination of the cytostatic effect of these conjugates, the cells were treated with the compounds at 0.8–100 μM concentration range dissolved in the corresponding serum-free media for 24 h. After incubation, the treating solutions were removed, the cells were washed two times with serum-free medium and cultured for 48 h in the appropriate serum-containing cell culture medium. On the fourth day, the MTT assay was carried out to determine the IC50 values of the compounds. IC50 is the concentration that inhibits cell proliferation by 50%. Nonlinear regression analysis was performed with Prism 6 software (GraphPad, La Jolla, CA, USA) to generate sigmoidal dose–response curves, from which the 50% inhibitory concentration (IC50) values of the compounds were calculated and presented as micromolar (µM) units. The experiments were done in triplicate, and each experiment was repeated twice.

[2] = system: subcutaneous B16 murine melanoma in C57BL/6 male mice; assay: In vivo antitumor effect, subcutaneous B16 melanoma allograft; details: for Increase of animal bodyweight at the end of the experiment in comparison to the start: conjugates 10 mg Dau content/kg i.p. days 9, 13, 15, 17, free Dau 1 mg/kg days 9, 17; for Tumor growth inhibition based on tumor weight, in comparison to the control group / Animal body weight (Table S1) / Tumor weigh in % (Table S1) / Tumor volume in % (Table S1) / Tumor volume in mm3 (Table S1): conjugates 10 mg Dau content/kg; for Tumor growth inhibition based on tumor weight, in comparison to the control group / Tumor volume in percentage (start set as 100%) increased in comparison to the control group: free Dau 1 mg/kg i.p.; for Animal body weight (Table S1): change at end compared to start; for Animal body weight (Table S1) / Tumor weigh in % (Table S1): minus = decrease; for Tumor weigh in % (Table S1) / Tumor volume in % (Table S1) / Tumor volume in mm3 (Table S1): change compared to control group; for Tumor volume in % (Table S1) / Tumor volume in mm3 (Table S1): minus = inhibition; for Tumor volume in percentage (start set as 100%) increased in comparison to the control group: end of experiment, Conj1 10 mg Dau content/kg
Method: In the first experiment, B16 murine melanoma cells were subcutaneously (s.c.) injected into side of the latero-abdominal region of 35 C57BL/6 male mice (20–28 g), which murine strain is syngeneic for the B16 melanoma tumor cell line [59, 60], 6.5 ×·10^5 cells in a volume of 200 µL M199 medium was inoculated per animal. Mice were randomized in a stratified procedure considering two main factors. The primary factor was to obtain groups with the most equal tumor sizes, the secondary factor was to have groups in which the weight of mice are the most equal. The treatment started 9 days after cell inoculation when average tumor volume was 30 mm^3. Compounds were dissolved in saline solution (Teva, Debrecen, Hungary), and administered via i.p. injection in a volume of 0.1 mL per 10 g of bodyweight. […] Animal weight and tumor volumes were measured initially when the treatment started and at periodic intervals following treatment. A digital caliper was used to measure the longest (a) and the shortest diameter (b) of a given tumor. The tumor volume was calculated using the formula V = ab^2 × π/6, whereby a and b represent the measured parameters (length and width). Termination of the experiment was 20 days after cell inoculation, i.e., 12 days after treatment started, since the average volume of the tumors in the control group reached over 1800 mm^3. The mice from all groups were sacrificed by cervical dislocation after which their tumors were harvested and weighed for antitumor effect assessment. Antitumor effect of treatments was evaluated measuring the tumor volume and calculating the percentage of how much the tumor volume grew in comparison to the starting tumor volume which was set arbitrarily for all tumors as 100% at the start of treatment.

[3] = system: M24 human melanoma cell line; assay: In vitro antiproliferative activity, MTT assay; assay type: cell-based; details: for IC50: MTT assay, 0.8–100 μM in serum-free medium 24 h, then 48 h culture, mean ± SD of two or three independent experiments; for Relative Potency: ratio of IC50 values of free Dau and conjugate
Text: as §1, §2

[4] = system: A2058 human melanoma cell line; assay: In vitro antiproliferative activity, MTT assay; assay type: cell-based; details: for IC50: MTT assay, 0.8–100 μM in serum-free medium 24 h, then 48 h culture, mean ± SD of two or three independent experiments; for Relative Potency: ratio of IC50 values of free Dau and conjugate
Text: as §1, §2

[5] = system: WM983B human melanoma cell line; assay: In vitro antiproliferative activity, MTT assay; assay type: cell-based; details: for IC50: MTT assay, 0.8–100 μM in serum-free medium 24 h, then 48 h culture, mean ± SD of two or three independent experiments; for Relative Potency: ratio of IC50 values of free Dau and conjugate
Text: as §1, §2

[6] = system: OCM-1 human uveal melanoma tumor in male NOD-SCID mice; assay: In vivo tumor growth inhibition, OCM-1 xenograft; set-up: species or system mouse
Method: In the next experiment, the murine xenograft melanoma model establishment studies were performed using 8–12-week-old male NOD-SCID mice. For selection of the most suitable tumor model, three cell lines were then inoculated subcutaneously, OCM-1, SK-MEL-202, and WM983A. Cells were injected in a 0.1 mL RPMI-1640 basic medium in a concentration of 1.5·× 10^6 cells/mL, and the tumor growth and weight of mice were monitored 2–3 times per week. Subsequently, the antitumor effects of the Dau–α-MSH conjugates were determined in a mouse xenograft melanoma model selected as described above. Once the tumor volume reached 60 mm^3, mice were randomized and assigned to different groups for each treatment: 0.9% saline as a control, free daunomycin, Conj2 and Conj4. Treatments were injected intraperitoneally every fifth day, three times in total (daunomycin dosage of 5 mg/kg in case of Conj2, 10 mg/kg for Conj4, respectively, which was determined based on the toxicity tests, and 1 mg/kg were used for free drug–MTD). The weight and tumor size of mice were monitored during the whole experiment. On Day 33, mice were euthanized, and the primary tumor, heart, lung, liver, and spleen were harvested and stored in 4% formalin (Molar Chemicals, Halásztelek, Hungary). Liver weight was measured for the calculation of the toxicity of conjugates and daunomycin.

OCM-3 cells = assay: In vitro cytostatic effect, PrestoBlue assay; assay type: cell-based, human; details: Homo sapiens; OCM-3; PrestoBlue; 0.003–200 μM in serum-free medium 72 h; mean ± SEM of three independent experiments
Text: as §1
(§3) The in vitro cytostatic effect of the Dau–α-MSH conjugate with optimized sequence (Conj4) was investigated and compared with Conj2 by PrestoBlue assay using human melanoma cell cultures with different origins. For determination of the cytostatic effect of the conjugates, the cells were treated with the compounds at 0.003–200 μM concentration range dissolved in the corresponding serum-free medium for 72 h. After the treatment, the PrestoBlue assay (purchased from Invitrogen (Waltham, MA, USA) was carried out to determine the IC50 values of the compounds. Based on the IC50 values, we also determined the targeting index (TI) of the conjugates using the following equation [58]: TI=IC50neg/IC50posconjugate/IC50neg/IC50posfree drug

WM983A cells = assay: In vitro cytostatic effect, PrestoBlue assay; assay type: cell-based, human; details: Homo sapiens; WM983A; PrestoBlue; 0.003–200 μM in serum-free medium 72 h; mean ± SEM of three independent experiments
Text: as §1, §3

WM983B cells = assay: In vitro cytostatic effect, PrestoBlue assay; assay type: cell-based, human; details: Homo sapiens; WM983B; PrestoBlue; 0.003–200 μM in serum-free medium 72 h; mean ± SEM of three independent experiments
Text: as §1, §3

OCM-1 cells = assay: In vitro cytostatic effect, PrestoBlue assay; assay type: cell-based, human; details: Homo sapiens; OCM-1; PrestoBlue; 0.003–200 μM in serum-free medium 72 h; mean ± SEM of three independent experiments
Text: as §1, §3

[7] = free drug 1 mg/kg i.p., group terminated on day 28

Structure (SMILES)	IC50 [1] [µM]	Relative Potency [1]	Increase of animal bodyweight at the end of the experiment in comparison to the start ([2]; B16-bearing C57BL/6 mice) [%]	Tumor growth inhibition based on tumor weight, in comparison to the control group ([2]; after termination (day 20)) [%]	Animal body weight (Table S1) ([2]; free Dau 1 mg/kg)	Tumor weigh in % (Table S1) ([2]; free Dau 1 mg/kg)	Tumor volume in % (Table S1) ([2]; free Dau 1 mg/kg)	Tumor volume in mm3 (Table S1) ([2]; free Dau 1 mg/kg)	Tumor volume in percentage (start set as 100%) increased in comparison to the control group [2] [%]	IC50 [3] [µM]	Relative Potency [3]	IC50 [4] [µM]	Relative Potency [4]	IC50 [5] [µM]	Relative Potency [5]	also measured
CCCC[C@H](NC(=O)[C@H](CO)NC(=O)[C@H](Cc1ccc(O)cc1)NC(=O)[C@H](CO)NC(=O)CON=C(C)[C@]1(O)Cc2c(O)c3c(c(O)c2[C@@H](O[C@H]2C[C@H](N)[C@H](O)[C@H](C)O2)C1)C(=O)c1c(OC)cccc1C3=O)C(=O)N[C@@H](CCC(=O)O)C(=O)N[C@@H](Cc1c[nH]cn1)C(=O)N[C@@H](Cc1ccccc1)C(=O)N[C@@H](CCCNC(=N)N)C(=O)N[C@@H](Cc1c[nH]c2ccccc12)C(=O)NCC(=O)N[C@@H](CCCCN)C(=O)N1CCC[C@H]1C(=O)N[C@H](C(N)=O)C(C)C [Conj1, Dau=Aoa-SYSNleEHFRWGKPV-NH2]	2.9 ± 0.6	0.0090	12.9	2.4	+12.9%	-2.4%	+9.7%	-23.8%	9.7	12.8 ± 1.6	0.0093	9.8 ± 5.4	0.0041	9.9 ± 1.5	0.0050	
CCCC[C@H](NC(=O)[C@H](CO)NC(=O)[C@H](Cc1ccc(O)cc1)NC(=O)[C@H](CO)NC(=O)CON=C(C)[C@]1(O)Cc2c(O)c3c(c(O)c2[C@@H](O[C@H]2C[C@H](N)[C@H](O)[C@H](C)O2)C1)C(=O)c1c(OC)cccc1C3=O)C(=O)N[C@@H](CCC(=O)O)C(=O)N[C@@H](Cc1c[nH]cn1)C(=O)N[C@@H](Cc1ccccc1)C(=O)N[C@@H](CCCNC(=N)N)C(=O)N[C@@H](Cc1c[nH]c2ccccc12)C(=O)NCC(=O)N[C@@H](CCCCNC(=O)CON=C(C)[C@]1(O)Cc2c(O)c3c(c(O)c2[C@@H](O[C@H]2C[C@H](N)[C@H](O)[C@H](C)O2)C1)C(=O)c1c(OC)cccc1C3=O)C(=O)N1CCC[C@H]1C(=O)N[C@H](C(N)=O)C(C)C [Conj3, Dau=Aoa-SYSNleEHFRWGK(Dau=Aoa)PV-NH2]	2 ± 0.7	0.0130	18.2		+18.2%	+9.2%	-14.7%	+12.3%		11 ± 0.8	0.0108	3 ± 0.8	0.0133	3.6 ± 0.2	0.0138	Tumor weight increased in comparison to the control ([2]; after termination (day 20), 10 mg Dau content/kg i.p.): 9.2%; Average tumor volume (mm^3) higher compared to the control group ([2]; end of experiment (day 20), 10 mg Dau content/kg i.p.): 12.3%
COc1cccc2c1C(=O)c1c(O)c3c(c(O)c1C2=O)C[C@@](O)(C(C)=O)C[C@@H]3O[C@H]1C[C@H](N)[C@H](O)[C@H](C)O1 [Dau, daunomycin, reference compound]			7.6	17	+7.6%	-17.0%	+58.8%	-4.9%	58.8							IC50 ([1]; Mus musculus): 0.026 ± 0.008 µM; Tumor growth inhibition based on tumor volume in mm^3, compared to control ([2]; end of experiment (day 20), conjugates 10 mg Dau content/kg i.p., free Dau 1 mg/kg): 4.9%; Animals died during the experiment ([2]; seven animals per group, B16-bearing C57BL/6 mice): 3 animals; IC50 ([3]; Homo sapiens): 0.119 ± 0.025 µM; IC50 ([4]; Homo sapiens): 0.04 ± 0.007 µM; IC50 ([5]; Homo sapiens): 0.05 ± 0.023 µM; Liver weight compared to the control ([6]; OCM-1-bearing NOD-SCID mice, Conj2 5 mg/kg, Conj4 10 mg/kg, daunomycin 1 mg/kg i.p., no significant toxicity): 89.79%; Normalized liver weight, value line 1 ([6]; Table S2, single animal, line 1): 4.05%; Normalized liver weight, value line 2 ([6]; Table S2, single animal, line 2): 4.31%; Normalized liver weight, value line 4 ([6]; Table S2, single animal, line 4): 4.81%; Normalized liver weight, value line 5 ([6]; Table S2, single animal, line 5): 4.07%; Normalized liver weight, value line 6 ([6]; Table S2, single animal, line 6): 4.07%; Normalized liver weight, value line 7 ([6]; Table S2, single animal, line 7): 5.29%; Normalized liver weight, line printed as "relative to ctr" ([6]; Table S2, value line 9): 5.00%; Toxicity (general condition of mice) [6, 7]: high toxicity; Tumor inhibition compared to the controls [6, 7]: lack of tumor inhibition; IC50 (OCM-3 cells): 0.56 ± 0.05 µM; IC50 (WM983A cells): 0.19 ± 0.06 µM; IC50 (WM983B cells): 0.33 ± 0.05 µM; IC50 (OCM-1 cells): 0.73 ± 0.06 µM
